{"source": "patent EP0603240B1", "about": "“SAFENING HERBICIDAL PYRAZOLYLSULFONYLUREAS” (priority 1991, dated 1993)", "format_in_all_cases": "in vivo", "key": {"[1]": {"test_system": "barnyardgrass (Echinochloa crusgalli)", "assay": "Example 18, Procedure II: Herbicide No. 1 + ERADICANE (EPTC + R-25788) with auxiliary antidotes", "method": "(§1) Containers were filled and compacted with a fumigated silt loam top soil to a depth of about 1.3 cm from the top of the container. A first container was designated as an untreated control, a second container was designated as a herbicide control, and a third container was designated as a herbicide + antidote test container. Each of the containers was seeded with a crop species. A measured amount of herbicide dispersed or dissolved in acetone was applied to a measured quantity of soil. To this same quantity of soil treated with herbicide, there was added a measured amount of antidote dispersed or dissolved in acetone. The quantity of soil treated with the herbicide and antidote was thoroughly mixed to incorporate the herbicide and antidote in the soil uniformly. The seed bed in the third container of soil was covered with the soil treated with the herbicide and antidote and the container was leveled. For each test series, the seed beds of the first and second containers were likewise covered by soil layers. the cover layer of the first container was not treated with herbicide or antidote.\n(§2) The containers were then placed on a bench in a greenhouse and sub-irrigated as required for the duration of the test. […] Plant response is measured in terms of percent injury. Antidote efficacy is indicated as the difference in plant injury by the herbicide(s) without the antidote and with the antidote.\n(§3) This procedure is the same as Procedure I, but modified in the manner that after incorporation of the chemicals (herbicide and antidote) the containers with the covered seedbed were treated with an initial overhead irrigation equivalent to 0.6 cm rainfall, then subsequently sub-irrigated as required on greenhouse benches.\n(§4) In the series of greenhouse tests described below, for routine screening purposes the herbicide/antidote compositions were tested in crop/weed combinations involving corn as the crop and either or both of the weeds barnyardgrass (Echinochloa crusgalli), a monocotyledonous weed, and velvetleaf (Abutilon theophrasti), a dicotyledonous weed. In the tables below, these weeds are indicated by the symbols \"BYG\" and \"VL\", respectively.\n(§5) In the test reported in this example, the herbicidal composition was similar to that used in Example 16 in that Herbicide No. 1 was combined with EPTC (Herbicide No. 4) as a co-herbicide and the antidotes included Nos. 1, 2, 7, 13 and 15. However, in this test the EPTC was introduced as a formulation of ERADICANE (EPTC + the antidote R-25788, i.e., Antidote No. 1) at an application rate of 8.96 kg/ha. Thus, in this test two antidotes were present, viz. R-25788 and one of the auxilliary antidotes, No. 2, 13 and 15.\n(§6) Test procedures were those of Procedure II above."}, "[2]": {"test_system": "velvetleaf (Abutilon theophrasti)", "assay": "Example 18, Procedure II: Herbicide No. 1 + ERADICANE (EPTC + R-25788) with auxiliary antidotes", "method": "as §1, §2, §3, §4, §5, §6"}, "[3]": {"test_system": "corn", "assay": "Example 24, Procedure II: Herbicide No. 1 + co-herbicides Nos. 4, 6, 7, 12 with Antidote Nos. 15 and 17-21", "method": "as §1, §2, §3\n(§7) In other greenhouse tests, using Procedure II described above, the safening efficacy of Antidote Nos. 15 and 17-21 was evaluated against Herbicide No. 1 in corn in the presence of Giant foxtail (Setaria fabergi) and Velvetleaf (Abutilon theophrasti) as representative annual monocotyledonous and dicotyledonous weeds, respectively.\n(§8) Test results are shown in Tables 23A and 23B wherein the indicated plant inhibition represents the average of duplicate replications, with observations being made thirteen (13) days after application of the chemicals. Giant foxtail and Velvetleaf are represented by the symbols \"GFT\" and \"VL\", respectively. The data in Table 23A show the test results using the antidotes at 2.24 kg/ha, whereas in Table 23B, the antidotal rate was reduced to 0.56 kg/ha.\n(§9) The tests described in Example 23 were duplicated, but in this example a variety of co-herbicides were included to ascertain the efficacy of the antidotes against combinations of Herbicide No. 1 and Herbicides Nos. 4, 6, 7 and 12 as co-herbicides. Test results are shown in Table 24, wherein the antidote application rate was 2.24 kg/ha."}, "[4]": {"test_system": "velvetleaf (Abutilon theophrasti)", "assay": "Example 24, Procedure II: Herbicide No. 1 + co-herbicides Nos. 4, 6, 7, 12 with Antidote Nos. 15 and 17-21", "method": "as §1, §2, §3, §7, §8, §9"}, "[5]": {"test_system": "Giant foxtail (Setaria fabergi)", "assay": "Example 24, Procedure II: Herbicide No. 1 + co-herbicides Nos. 4, 6, 7, 12 with Antidote Nos. 15 and 17-21", "method": "as §1, §2, §3, §7, §8, §9"}, "[6]": {"settings": "Herbicide No.1 0.56 kg/ha + ERADICANE 8.96 kg/ha, no added antidote"}, "[7]": {"settings": "Herbicide No.1 0.56 kg/ha alone"}, "[8]": {"settings": "Herbicide No.1 1.12 kg/ha + ERADICANE 8.96 kg/ha, no added antidote"}, "[9]": {"settings": "Herbicide No.1 1.12 kg/ha alone"}, "[10]": {"settings": "Herb. No. 1 0.07 Kg/ha + Co-Herb. No. 4 1.12 Kg/ha + antidote 2.24 Kg/ha"}, "[11]": {"settings": "Herb. No. 1 0.07 Kg/ha + Co-Herb. No. 6 0.14 Kg/ha + antidote 2.24 Kg/ha"}, "[12]": {"settings": "Herb. No. 1 0.07 Kg/ha + Co-Herb. No. 7 0.28 Kg/ha + antidote 2.24 Kg/ha"}, "[13]": {"settings": "Herb. No. 1 0.07 Kg/ha + Co-Herb. No. 12 0.28 Kg/ha + antidote 2.24 Kg/ha"}, "[14]": {"settings": "Herb. No. 1 0.14 Kg/ha + Co-Herb. No. 4 1.12 Kg/ha + antidote 2.24 Kg/ha"}, "[15]": {"settings": "Herb. No. 1 0.14 Kg/ha + Co-Herb. No. 6 0.14 Kg/ha + antidote 2.24 Kg/ha"}, "[16]": {"settings": "Herb. No. 1 0.14 Kg/ha + Co-Herb. No. 7 0.28 Kg/ha + antidote 2.24 Kg/ha"}, "[17]": {"settings": "Herb. No. 1 0.14 Kg/ha + Co-Herb. No. 12 0.28 Kg/ha + antidote 2.24 Kg/ha"}, "[18]": {"settings": "Herb. No. 1 0.28 Kg/ha + Co-Herb. No. 4 1.12 Kg/ha + antidote 2.24 Kg/ha"}, "[19]": {"settings": "Herb. No. 1 0.28 Kg/ha + Co-Herb. No. 6 0.14 Kg/ha + antidote 2.24 Kg/ha"}, "[20]": {"settings": "Herb. No. 1 0.28 Kg/ha + Co-Herb. No. 7 0.28 Kg/ha + antidote 2.24 Kg/ha"}, "[21]": {"settings": "Herb. No. 1 0.28 Kg/ha + Co-Herb. No. 12 0.28 Kg/ha + antidote 2.24 Kg/ha"}, "[22]": {"settings": "Herb. No. 1 0.56 Kg/ha + Co-Herb. No. 4 1.12 Kg/ha + antidote 2.24 Kg/ha"}, "[23]": {"settings": "Herb. No. 1 0.56 Kg/ha + Co-Herb. No. 6 0.14 Kg/ha + antidote 2.24 Kg/ha"}, "[24]": {"settings": "Herb. No. 1 0.56 Kg/ha + Co-Herb. No. 7 0.28 Kg/ha + antidote 2.24 Kg/ha"}, "[25]": {"settings": "Herb. No. 1 0.56 Kg/ha + Co-Herb. No. 12 0.28 Kg/ha + antidote 2.24 Kg/ha"}}, "data": [{"smiles": "COC(=O)c1c(Cl)nn(C)c1S(=O)(=O)NC(=O)Nc1nc(OC)cc(OC)n1", "note": "[No.1]", "values": [{"measurement": "% Injury BYG", "setting": "[1]; [6]", "value": 90, "unit": "%"}, {"measurement": "% Injury BYG", "setting": "[1]; [7]", "value": 30, "unit": "%"}, {"measurement": "% Injury BYG", "setting": "[1]; [8]", "value": 85, "unit": "%"}, {"measurement": "% Injury BYG", "setting": "[1]; [9]", "value": 55, "unit": "%"}, {"measurement": "% Injury VL", "setting": "[2]; [6]", "value": 80, "unit": "%"}, {"measurement": "% Injury VL", "setting": "[2]; [7]", "value": 45, "unit": "%"}, {"measurement": "% Injury VL", "setting": "[2]; [8]", "value": 75, "unit": "%"}, {"measurement": "% Injury VL", "setting": "[2]; [9]", "value": 55, "unit": "%"}]}, {"smiles": "CC1COc2ccccc2N1C(=O)C(Cl)Cl", "note": "(centres unmarked) [compound 17]", "values": [{"measurement": "% Inhibition Corn", "setting": "[3]; [10]", "value": 0, "unit": "%"}, {"measurement": "% Inhibition Corn", "setting": "[3]; [11]", "value": 5, "unit": "%"}, {"measurement": "% Inhibition Corn", "setting": "[3]; [12]", "value": 0, "unit": "%"}, {"measurement": "% Inhibition Corn", "setting": "[3]; [13]", "value": 5, "unit": "%"}, {"measurement": "% Inhibition Corn", "setting": "[3]; [14]", "value": 0, "unit": "%"}, {"measurement": "% Inhibition Corn", "setting": "[3]; [15]", "value": 0, "unit": "%"}, {"measurement": "% Inhibition Corn", "setting": "[3]; [16]", "value": 0, "unit": "%"}, {"measurement": "% Inhibition Corn", "setting": "[3]; [17]", "value": 5, "unit": "%"}, {"measurement": "% Inhibition Corn", "setting": "[3]; [18]", "value": 5, "unit": "%"}, {"measurement": "% Inhibition Corn", "setting": "[3]; [19]", "value": 15, "unit": "%"}, {"measurement": "% Inhibition Corn", "setting": "[3]; [20]", "value": 5, "unit": "%"}, {"measurement": "% Inhibition Corn", "setting": "[3]; [21]", "value": 5, "unit": "%"}, {"measurement": "% Inhibition Corn", "setting": "[3]; [22]", "value": 20, "unit": "%"}, {"measurement": "% Inhibition Corn", "setting": "[3]; [23]", "value": 15, "unit": "%"}, {"measurement": "% Inhibition Corn", "setting": "[3]; [24]", "value": 15, "unit": "%"}, {"measurement": "% Inhibition Corn", "setting": "[3]; [25]", "value": 20, "unit": "%"}, {"measurement": "% Inhibition VL", "setting": "[4]; [10]", "value": 90, "unit": "%"}, {"measurement": "% Inhibition VL", "setting": "[4]; [11]", "value": 90, "unit": "%"}, {"measurement": "% Inhibition VL", "setting": "[4]; [12]", "value": 85, "unit": "%"}, {"measurement": "% Inhibition VL", "setting": "[4]; [13]", "value": 90, "unit": "%"}, {"measurement": "% Inhibition VL", "setting": "[4]; [14]", "value": 90, "unit": "%"}, {"measurement": "% Inhibition VL", "setting": "[4]; [15]", "value": 90, "unit": "%"}, {"measurement": "% Inhibition VL", "setting": "[4]; [16]", "value": 95, "unit": "%"}, {"measurement": "% Inhibition VL", "setting": "[4]; [17]", "value": 98, "unit": "%"}, {"measurement": "% Inhibition VL", "setting": "[4]; [18]", "value": 90, "unit": "%"}, {"measurement": "% Inhibition VL", "setting": "[4]; [19]", "value": 95, "unit": "%"}, {"measurement": "% Inhibition VL", "setting": "[4]; [20]", "value": 98, "unit": "%"}, {"measurement": "% Inhibition VL", "setting": "[4]; [21]", "value": 98, "unit": "%"}, {"measurement": "% Inhibition VL", "setting": "[4]; [22]", "value": 95, "unit": "%"}, {"measurement": "% Inhibition VL", "setting": "[4]; [23]", "value": 98, "unit": "%"}, {"measurement": "% Inhibition VL", "setting": "[4]; [24]", "value": 98, "unit": "%"}, {"measurement": "% Inhibition VL", "setting": "[4]; [25]", "value": 95, "unit": "%"}, {"measurement": "% Inhibition GFT", "setting": "[5]; [10]", "value": 55, "unit": "%"}, {"measurement": "% Inhibition GFT", "setting": "[5]; [11]", "value": 100, "unit": "%"}, {"measurement": "% Inhibition GFT", "setting": "[5]; [12]", "value": 100, "unit": "%"}, {"measurement": "% Inhibition GFT", "setting": "[5]; [13]", "value": 99, "unit": "%"}, {"measurement": "% Inhibition GFT", "setting": "[5]; [14]", "value": 50, "unit": "%"}, {"measurement": "% Inhibition GFT", "setting": "[5]; [15]", "value": 100, "unit": "%"}, {"measurement": "% Inhibition GFT", "setting": "[5]; [16]", "value": 100, "unit": "%"}, {"measurement": "% Inhibition GFT", "setting": "[5]; [17]", "value": 99, "unit": "%"}, {"measurement": "% Inhibition GFT", "setting": "[5]; [18]", "value": 45, "unit": "%"}, {"measurement": "% Inhibition GFT", "setting": "[5]; [19]", "value": 98, "unit": "%"}, {"measurement": "% Inhibition GFT", "setting": "[5]; [20]", "value": 100, "unit": "%"}, {"measurement": "% Inhibition GFT", "setting": "[5]; [21]", "value": 98, "unit": "%"}, {"measurement": "% Inhibition GFT", "setting": "[5]; [22]", "value": 70, "unit": "%"}, {"measurement": "% Inhibition GFT", "setting": "[5]; [23]", "value": 99, "unit": "%"}, {"measurement": "% Inhibition GFT", "setting": "[5]; [24]", "value": 99, "unit": "%"}, {"measurement": "% Inhibition GFT", "setting": "[5]; [25]", "value": 100, "unit": "%"}]}]}
